# Test results published in patent US20050276794A1, “Composition and method for improving pancreatic islet cell survival” (priority 2004, published 2005).
# Experiments:
# isolated islet cells = type: cell-based
# Method: Single islets were hand-picked from a Petri dish under microscopy and transferred to wells in a 96-well microculture plate. Micronutrients comprising alpha-tocopherol (50 μM), gamma-tocopherol (50 μM), and succinate (5 μM) were added to wells in various combinations, with regular media (no added micronutrients) used as control. Islet cell survival was indicated by maintenance of a more compact cell mass, with disruption of the cell mass indicating islet cell death detected by microscopic means. […] Samples are shown in duplicate (a—middle panel, and b—bottom panel), with the corresponding control in the top panel.
# porcine islets = assay: Islet morphology under anoxia (photomicrographs); type: cell-based; details: 100 μM alone; up to 30 hrs anoxia; versus untreated islets
# Method: Porcine islets were hand picked and placed in wells (one islet/well in triplicates) in a 96 micro plate. The islets were pre-incubated either in regular porcine culture media (M199) or in media supplemented with alpha-tocopherol 100 μM, gamma-tocopherol 100 μM or the combination of alpha-+gamma-tocopherol, 50 μM each prior to exposure to anoxia. Islets were then incubated for additional 30 hrs either under normoxia (control—95% Air, 5%CO2) or anoxia (95%N2, 5%CO2) in the presence or absence of the indicated vitamin E concentration. At four different time points (0 h, 12 h, 24 h and 30 h), islets were removed from the incubator, examined microscopically and photomicrographs were obtained. Panel A: Porcine islets cultured with regular porcine culture media (M199) under anoxia. As indicated by the photomicrographs, anoxia caused a significant change in to the islet morphology. […]
# Porcine islets were isolated and then cultured for 48 hours according to standard protocols Islets were then cultured for an additional 18-24 hours in media in the presence or absence of alpha-tocopherol and gamma-tocopherol (50 μM each). […] Islet quality was assessed at time intervals ranging from 6 to 24 hours from the initiation of exposure to anoxia with Oxygen Consumption Rate (OCR), ATP, Caspase 3/7 activity measurements (all normalized to DNA), microphotography and transplantation into diabetic nude mice. […]
# [1] = isolated islet cells in culture medium
Structure (SMILES),protective benefit for preventing cell death in isolated islet cells (comparison) (isolated islet cells; compared with alpha-tocopherol or either tocopherol alone),islet morphology after exposure to anoxia (porcine islets),concentration at which increased benefit is noted (isolated islet cells; [1]),concentration at which protective effect is exhibited (isolated islet cells; [1])
Cc1c(O)cc2c(c1C)O[C@](C)(CCC[C@H](C)CCC[C@H](C)CCCC(C)C)CC2 [gamma-tocopherol],more protective benefit,more normal morphology,–,–
Cc1c(C)c2c(c(C)c1O)CC[C@@](C)(CCC[C@H](C)CCC[C@H](C)CCCC(C)C)O2 [alpha-tocopherol],–,more normal morphology,at least 50 μM,at least 10 μM
